Reference: US10323254B2, “Method for regulating plant growth” (RIKEN, priority 2015, dated 2019)
“Also recorded” adds a separate entry of the source.

What was measured:
Assay type in all cases: in vivo, Arabidopsis thaliana
[1] = tested on: BSS1; assay: qRT-PCR of BSS1 expression in wild-type seedlings; settings: WT seedlings on medium with different concentrations of Brz or BL, 7 days; dose-dependent
Protocol: The data represent the mean±s.d. from 4 independent experiments. […] The samples were grown in the same conditions as FIG. 4A for 3 days (scale bar: 5 mm). FIGS. 4C to 4E show the results of determining the BSS1 expression level by qRT-PCR. Wild-type (WT) seedlings grown on medium with different concentrations of Brz (FIG. 4C) and BL (FIG. 4D) in the light for 7 days and dark-grown seedlings exposed to light for 0-7 days (Figure E) were used for analysis of the BSS1 expression level. The data represent the mean±s.d. of 4 independent experiments.
Approximately 10,000 RIKEN GSC Arabidopsis activation-tagging lines (Nakazawa et al., 2003, Activation tagging, a novel tool to dissect the functions of a gene family. Plant J. 34: 741-750) were screened on ½ MS medium containing 3 μM Brz (Asami et al., 2000, Characterization of brassinazole, a triazole-type brassinosteroid biosynthesis inhibitor, Plant Physiol. 123: 93-100). After growth for 7 days in the dark, seedlings with shorter hypocotyls than those of the controls were identified and transferred to soil. […] First-strand cDNA was synthesized with PrimeScript (Takara) and used in quantitative real-time PCR (qRT-PCR). […]

[2] = tested on: BSS1-GFP; assay: Fluorescence microscopy of punctate BSS1-GFP in transgenic seedlings; settings: versus control conditions; for number of punctate BSS1-GFP: seedlings grown on medium with 3 μM Brz or 100 nM BL
[3] = tested on: BSS1 pro:GUS; assay: GUS staining of BSS1 pro:GUS transgenic seedlings; settings: 3-day-old seedlings on medium with 3 μM Brz, dark or light
Protocol: The data represent the mean±s.d. from 4 independent experiments. […] The samples were grown in the same conditions as FIG. 4A for 3 days (scale bar: 5 mm). FIGS. 4C to 4E show the results of determining the BSS1 expression level by qRT-PCR. Wild-type (WT) seedlings grown on medium with different concentrations of Brz (FIG. 4C) and BL (FIG. 4D) in the light for 7 days and dark-grown seedlings exposed to light for 0-7 days (Figure E) were used for analysis of the BSS1 expression level. The data represent the mean±s.d. of 4 independent experiments. The seedlings of the BSS1 promoter: GUS transgenic plants were used for the histochemical detection of GUS expression. The samples were stained at 37° C. overnight in GUS staining solution as previously described (Ito and Fukuda, 2002, ZEN1 is a key enzyme in the degradation of nuclear DNA during programmed cell death of tracheary elements. Plant Cell 14: 3201-3211). To test the induction of GUS expression, 3-day-old transgenic seedlings were grown on medium with 3 μM Brz or dimethyl sulfoxide (DMSO) as a control.

[4] = tested on: BIL1-GFP; assay: Fluorescence microscopy of BIL1-GFP localization in root cells; settings: for punctate BIL1-GFP signals: root cells
Protocol: The results are presented as the mean±s.d. (n=61, *P<0.01, Student's t-test). […] The results are presented as the mean±s.d. (n=27, *P<0.01, Student's t-test).
The plants that were transformed with the CaMV35S-BSS1-GFP construct BSS1(-GFP)-OX and the CaMV35S-BIL1-GFP construct BIL1-GFP-OX were observed via confocal laser scanning microscopy with a BX60 fluorescence microscope (Olympus) equipped with a Model CSU10 confocal scanner (Yokogawa Electric) and LSM700 (Zeiss).
The images were analyzed using ImageJ software. To measure the ratio of the nuclear and cytosolic signals of BIL1-GFP for each cell, the signal intensities in the nucleus and cytosol were calculated from the mean of the intensity in each area. The nuclear to cytosolic signal ratio was then calculated for each cell. The average nuclear/cytosolic signal ratio and standard error were calculated from measurements of at least 54 cells from each line (FIG. 9B). Line scan measurements from the vacuole to the nucleus through the cytosol were performed, and representative plot profiles of sample measurements are presented in FIG. 5C.

Row | Compound | BSS1 expression [1] | number of punctate BSS1-GFP [2] | BSS1 pro:GUS reporter expression [3] | enhanced nuclear BIL1-GFP signal ([4]; bop1-3 bop2-1 background, root cells of 4-day-old seedlings, 3 μM Brz) | punctate BIL1-GFP signals ([4]; bop1-3 bop2-1 plants, treated with 3 μM Brz) | nuclear-to-cytosolic ratio of the BIL1-GFP signal ([4]; wild-type background, root cells of 4-day-old seedlings, 3 μM Brz) | punctate BIL1-GFP signals ([4]; wild-type background, after 3 μM Brz treatment) | diffused BSS1-GFP signal in the cytosol ([2]; seedlings grown on medium containing Brz)
1 | CC(C)[C@H](C)[C@@H](O)[C@H](O)[C@@H](C)[C@H]1CC[C@H]2[C@@H]3COC(=O)[C@H]4C[C@H](O)[C@H](O)C[C@]4(C)[C@H]3CC[C@]12C [BL, brassinolide] | decreased | decreased in number | – | – | – | – | – | –
2 | CC(O)(c1ccccc1)C(Cc1ccc(Cl)cc1)n1cncn1 (stereo not shown) [Brz, brassinazole] | increased | increased in number | caused BSS1 expression in the hypocotyls in the dark and in the cotyledons under light and dark conditions | strongly maintained | not detected | decreased | many punctate BIL1-GFP signals in the cytosol; also recorded: observed | reduced
